From patent US20050003546A1, “Viral uptake into cells and tissues” (Yale University, priority 2001, published 2005)

Experiments:
[1] = system: human umbilical vascular endothelial cells (HUVEC); assay: Ret-GFP retrovirus infection of HUVEC (Western blot, fluorescence microscopy); type: cell-based
Procedure: For retroviral infections supernatant from phoenix retroviral packaging cell line expressing […] was incubated for 30 min at 37 C in presence of AP (0.1-0.5 mM). HUVEC cells were exposed to the mixture for 24 hrs and then harvested.
(§1) Western blotting was performed as described previously (16). Briefly, cells were lysed (50 mM Tris-HCl, 0.1 mM EDTA, 0.1 mM EGTA, 1% (v/v) Nonidet P-40, 0.1% SDS, 0.1% deoxycholic acid, 1 mM Pefabloc, 10 μg/ml aprotinin, and 10 μg/ml leupeptin) for 1 hr at 4° C. and the soluble material was separated on a 10% SDS-PAGE, and transferred to a nitrocellulose membrane. Blocked membranes were probed using the specific polyclonal anti-GFP (Clontech, Palo Alto, Calif.) or the monoclonal anti-hsp90(Stressgen, Victoria, Canada) antibodies. After washing and incubating with secondary antibodies, immunoreactive proteins were visualized by ECL detection system (Amersham, Buckinghamshire, UK).
Live cells infected with Ad-GFP were washed with serum free media and visualized using a Zeiss Axiovert 200 microscope under phase contrast or GFP filters (excitation 450 nm, emission 510 nm). Images were captured using the Openlab Imaging software (Improvision, Lexington, Mass.). […] Cells were resuspended in PBS and were analyzed by gating for GFP fluorescence by flow cytometry using a FACSort (Becton Dickinson, San Jose, Calif.).

adductor muscle = assay: Intramuscular Ad-β-gal reporter virus injection into mouse adductor muscle; type: in vivo; conditions: Ad-β-gal 5×10^7 pfU in 25 μl, three sites, pre-complexed with AP 10 μM
Procedure: (§2) -galactosidase expression was monitored by either X-Gal staining or activity 4 days after virus administration as described previously (14,18).
(§3) Ischemic hind limb model was performed as described previously (19). Briefly, following anesthesia, the left femoral artery was exposed under a dissection microscope. The proximal end of the femoral artery and the distal portion of the saphenous artery were ligated. All branches between these two sites were cauterized, and arteriectomy was performed. Following arteriectomy, 25 μl of either virus storage buffer, Ad-VEGF (5.5×10^7 pfu), Ad- -ga l (2.5×10^7 pfu), pre-complexed with AP (30 min room temperature; 10 μM) or AP alone (at least 5 animals per group) was injected into the adductor muscle at 3 different sites. Mice were sacrificed 21 days following surgery and muscles of the lower limbs were harvested, methanol fixed and paraffm embedded. Tissue sections (5 μm thick) were stained using an anti-CD31 antibody (Pharmingen, San Diego, Calif.), and hematoxylin counter stained. Pictures from 4 random areas of each section, and 3 sections per mice were taken using a Kodak digital camera mounted on a light microscope (40× objective). Capillary density was quantified by measuring the percentage of CD31 positive area out of total area using the Matlab software (The Math Works, Inc.).

[2] = system: carotid arteries from eNOS -/- mice; assay: Isometric studies: acetylcholine-induced relaxation of eNOS -/- carotid arteries transduced with Ad-eNOS; design: species or system mouse; conditions: carotid arteries of eNOS (-/-) mice luminally transduced with Ad-eNOS, without or pre-complexed with AP
Procedure: (§4) The common carotid artery was cannulated, flushed with a small amount (˜3 μl) of virus and tied off proximally. Approximately 3 μl of Ad-β-gal (1×10^9 pfu/ml), Ad-GFP (1×10^9 pfu/ml), Ad-eNOS (5×10^10 pfu/ml) virus or virus complexed with AP (10 μM) for 30 min at room temperature was injected. The virus-filled vessel was incubated in situ at 37° C. for 2 hours and then rinsed in saline prior to overnight (18 hours) incubation in complete DMEM at 37° C., 5% CO2. Control vessels were filled with viral storage buffer and treated in an identical manner.
Rings of carotid artery were studied as described previously (17). To assess endothelial function, vessels were precontracted with a submaximal (˜80%) concentration of PGF2α (5×10^−6 mol/L) prior to application of endothelium-dependent dilator acetylcholine (10^−10−3×10^−6 mol/L).

[3] = system: bovine aortic endothelial cells (BAEC); assay: Ad-GFP adenovirus infection of bovine aortic endothelial cells (Western blot); type: cell-based; conditions: AP/Ad-GFP complex
Procedure: (§5) Adenoviruses (1 m.o.i. or approximately 1×10^6 pfu per 60 mm dish) were pre-complexed with the peptides (0.05 to 5 mM) in 100 μl of serum free media (OptiMEM; Gibco, Grand Island, N.Y.) for 30 min at room temperature. Cells (COS-7 or BAEC) were grown on 60 mm dishes until 90% confluent and media was changed to serum free (2 ml) before exposure to the adenovirus complex. The complex (100 μl) was added to the cells for 4 hrs and then the cells were washed and changed to complete growth media for 24 to 48 hours.
as §1

[4] = system: mouse carotid artery endothelium; assay: Endothelium specific gene transfer of mouse carotid arteries ex vivo (Ad-GFP, Ad-β-gal)
Procedure: as §4, §2

[5] = system: bovine aortic endothelial cells (BAEC); assay: Nitric oxide release from BAEC infected with Ad-eNOS or Ad-GFP; type: cell-based
Procedure: as §5
Basal NO2^− release from BAEC, a stable metabolite of NO, was assessed in the medium as described (9). In all experiments, release was attenuated by a NOS inhibitor.

[6] = system: vascular permeability in mouse ear; assay: Permeability assay: Evans blue leakage in mouse ear after intradermal Ad-VEGF; type: in vivo
Procedure: Ad-VEGF (5.5×10^7 pfu) or Ad-β-gal (2.5×10^7 pfu) with or without AP complex (10 μM; 30 minutes at room temperature) was injected intradermally into the ear of CD1 mouse. Evans blue leakage was monitored 4 days after infection as described previously (9).

[7] = system: blood vessels of the lower limbs (PECAM/CD31 positive area); assay: Ischemic hind limb angiogenesis assay with intramuscular Ad-VEGF; type: in vivo, mouse; conditions: intramuscular Ad-VEGF 5.5×10^7 pfu in presence of AP, hind limb ischemia
Procedure: as §3

COS-7 cells = assay: Ad-GFP adenovirus infection of COS-7 cells (Western blot, fluorescence microscopy, flow cytometry); type: cell-based
Procedure: as §5, §1
Live cells infected with Ad-GFP were washed with serum free media and visualized using a Zeiss Axiovert 200 microscope under phase contrast or GFP filters (excitation 450 nm, emission 510 nm). Images were captured using the Openlab Imaging software (Improvision, Lexington, Mass.). Flow cytometric analysis of GFP expressing cells was performed 48 h after following infection. Cells were trypsinized, PBS washed and fixed in 70% ethanol at 4° C. Cells were resuspended in PBS and were analyzed by gating for GFP fluorescence by flow cytometry using a FACSort (Becton Dickinson, San Jose, Calif.).

Row | Sequence | GFP expression (western blot) ([1]; AP 0.05-0.5 mM added to Ret-GFP viral supernatant (approximately 10^6-10^7 pfu/ml)) | GFP positive cells (fluorescence microscopy) ([1]; AP/Ret-GFP complex) | staining for β-galactosidase activity in adductor muscle (adductor muscle) | endothelium dependent dilation in response to acetylcholine (Ach) [2] | GFP expression levels (western blotting) compared to Ad-GFP alone [3] | infectivity of the Ad-GFP virus (en face fluorescence imaging) ([4]; Ad-GFP 10^9 pfu/ml pre-complexed with AP 10 μM, luminal, ex vivo) | X-Gal staining in the endothelial cell layer (tissue cross section) ([4]; Ad-β-gal 10^9 pfu/ml, AP pre-treatment, ex vivo) | β-galactosidase activity increase over Ad-β-gal infection alone ([4]; carotid arteries treated with AP/Ad-β-gal complex) | Ad-eNOS mediated NO release from cultured endothelial cells ([5]; 1 m.o.i. of eNOS virus in absence or presence of AP) | NO release with control virus Ad-GFP ([5]; Ad-GFP 1 m.o.i. in absence or presence of AP) | increase of basal vascular permeability over Ad-VEGF alone ([6]; AP complexed with Ad-VEGF, mouse ear) [fold] | ability of VEGF to promote vascular leak (extravasation of Evans blue) ([6]; Ad-VEGF 5.5×10^7 pfu with AP, intradermal, 4 days) | PECAM positive vessels compared to Ad-VEGF alone [7] [fold] | expression of GFP (western blotting) (COS-7 cells; AP 0.05 to 5.0 mM pre-incubated 30 min with Ad-GFP 1 m.o.i., diluted 20 fold into medium, COS-7) | increase in cells strongly positive for GFP (M2), flow cytometry (COS-7 cells; Ad-GFP 1 m.o.i. pre-complexed with AP vs Ad-GFP alone, COS-7) [fold] | numbers of GFP positive cells (fluorescent microscopy) compared to virus alone (COS-7 cells; Ad-GFP pre-incubated with 0.5 mM AP, COS-7) | GFP expression when cells exposed to AP prior to or after Ad-GFP infection (no pre-complex step) (COS-7 cells; COS-7, Ad-GFP) | increasing Ad-GFP infection (GFP western blot), compared with AP (COS-7 cells; Tat peptide 0.1 and 0.5 mM, COS-7)
1 | RQIKIWFQNRRMKWKK [AP] | dose-dependently enhanced | substantial increase | increased | improved | marked increase | markedly improved | increased staining | two | improves | does not influence | 2.5 | significantly enhanced | > 4 | dose-dependently improved | ~10 | increased numbers | did not yield an increase | 
2 | GRKKRRQRRRPPQ (Human immunodeficiency virus) [Tat peptide, synthetic peptide, HIV Tat amino acids 48-60] |  |  |  |  |  |  |  |  |  |  |  |  |  |  |  |  |  | as efficient as AP
